What was measured:
Format in all cases: cell-based, Macaca fascicularis
[1] = tested on: monkey corneal endothelial cells; assay: Passage culture of monkey corneal endothelial cells with Y-27632, cell count by CellTiter-Glo; settings: Y-27632 10 μM, dilution ½, ⅙ or ⅛
Description: From the corneal tissue isolated from Macaca fascicularis euthanized, Descemet's membrane with corneal endothelial cells attached thereto was separated. The Descemet's membrane was incubated together with Dispase II (1.2 U/ml, Roche Applied Science) under the conditions of 37° C., 5% CO2 for 45 min, and the corneal endothelial cells were mechanically separated by a pipetting operation. The separated corneal endothelial cells were centrifuged and seeded on a media for corneal endothelium. The corneal endothelial cells that reached confluent were incubated with 0.05% trypsin under the conditions of 37° C., 5% CO2 for 10 min, and passage-cultured. After 4 to 6 passages, the corneal endothelial cells were placed in a 96-well plate to a dilution of ½, ⅙ or ⅛. The passage culture was continued using a medium for corneal endothelium added with Y-27632 (10 μM) for the ROCK inhibitor(+) group and a medium for corneal endothelium without addition of Y-27632 for the ROCK inhibitor(−) group. At 24 hr after the passage, the cells were counted in the same manner as in Example 5 using CellTiter-Glo (registered trade mark, Promega) (FIG. 8).

[2] = tested on: monkey corneal endothelial cells; assay: Primary culture of monkey corneal endothelial cells, toluidine blue staining, total area of cultured cells (Image J); settings: Y-27632 10 μM, day 10
Description: From the corneal tissue isolated from Macaca fascicularis euthanized, Descemet's membrane with corneal endothelial cells attached thereto was separated. In the same manner as in Example 2, for the ROCK inhibitor(+) group, the Descemet's membrane was placed in a medium for corneal endothelium added with Y-27632 (10 μM) and incubated under the conditions of 37° C., 5% CO2 for 10 min. For the ROCK inhibitor(−) group, the membrane was placed in a medium for corneal endothelium without addition of Y-27632 and incubated for 10 min under the same conditions. As the medium for corneal endothelium, the same cell culture medium as in Example 1 was used. The Descemet's membrane after the incubation was incubated together with Dispase II (1.2 U/ml, Roche Applied Science) under the conditions of 37° C., 5% CO2 for 45 min, and the corneal endothelial cells were mechanically separated by a pipetting operation. The separated corneal endothelial cells were centrifuged and stirred in the media for corneal endothelium with Y-27632(+) and Y-27632(−) to the same concentration, and the cells were seeded on a 96 well plate at a density of about 2000 cells per well. […] The total area of the cells was measured using Image J (National Institutes of Health) and analyzed (FIG. 6C).

[3] = tested on: monkey corneal endothelial cells; assay: Optimal concentration of Y-27632 for monkey corneal endothelial cells, viable cell count by CellTiter-Glo
Description: Monkey corneal endothelial cells (primary culture) collected in the same manner as in Example 2 were placed in media for corneal endothelium each added with Y-27632 at 1, 10, 33 and 100 μM and a medium for corneal endothelium without addition of Y-27632, and stirred to the same concentration, and the cells were seeded on a 96 well plate at a density of about 2000 cells per well. At 24 hr from the start of the culture, viable cells were counted using CellTiter-Glo (registered trade mark, Promega) (FIG. 7).

[4] = tested on: monkey corneal endothelial cells; assay: Cell morphology in passage culture of monkey corneal endothelial cells (phase contrast, phalloidin fluorescence staining); settings: passage culture on slide glass
Description: The Macaca fascicularis corneal endothelial cells passage-cultured in the same manner as in Example 6 were subcultured on a slide glass to a dilution of ¼. […] Furthermore, the corneal endothelial cells on the slide glass were fixed with 4% para-formaldehyde at room temperature for 10 min, and actin fiber was stained by phalloidin fluorescence staining (FIGS. 10A and 10B).

[5] = tested on: monkey corneal endothelial cells; assay: Primary culture of monkey corneal endothelial cells with Y-27632, phase contrast observation; settings: Y-27632 10 μM
Description: From the corneal tissue isolated from Macaca fascicularis euthanized for other purpose, Descemet's membrane with corneal endothelial cells attached thereto was separated. For the ROCK inhibitor(+) group, the Descemet's membrane was placed in a medium for corneal endothelium added with Y-27632 (10 μM) and incubated under the conditions of 37° C., 5% CO2 for 10 min. For the ROCK inhibitor(−) group, the membrane was placed in a medium for corneal endothelium without addition of Y-27632 and incubated for 10 min under the same conditions. As the medium for corneal endothelium, the same cell culture medium as in Example 1 was used. The Descemet's membrane after the incubation was incubated together with Dispase II (1.2 U/ml, Roche Applied Science) under the conditions of 37° C., 5% CO2 for 45 min, and the corneal endothelial cells were mechanically separated by a pipetting operation. The separated corneal endothelial cells were centrifuged and stirred in the media for corneal endothelium with Y-27632(+) and Y-27632(−) to the same concentration, and the cells were seeded on a 12 well plate at a density of about 20000 cells per well. The plate was pre-treated with an FNC coating mix (Athena ES) for 10 min. […]

`CC(N)[C@H]1CC[C@H](C(=O)Nc2ccncc2)CC1` (single isomer, unassigned; (+)) [Y-27632, (+)-trans-4-(1-aminoethyl)-1-(4-pyridylcarbamoyl)cyclohexane] was tested, and the “number of cells that adhered onto the plate at 24 hr after the passage, compared to medium without Y-27632” value [1] was “significantly high”, the “total area of cultured cells as compared to the ROCK inhibitor(−)” value [2] was “about 1.6 fold” and the “most effective concentration for monkey corneal endothelial cells” value ([3]; of 1, 10, 33 and 100 μM, 24 hr) was 10 µM. The “number of cells that adhered onto the plate at 24 hr, compared to medium without Y-27632 and media with other concentrations” value ([3]; primary culture, 10 μM Y-27632 (1, 10, 33 and 100 μM tested)) was “significantly high”, the “actin stress fiber (phalloidin fluorescence staining)” value ([4]; 24 hr) was “actin stress fiber was clearly observed” and the “cell adhesion and morphology at 24 hr after the passage (phase contrast)” value ([4]; dilution ¼) was “adhesion of the cells onto the slide glass increased, flattening to corneal endothelial cell-like cells was promoted, and aggregation of cells also increased”. For the same compound, the “number of days before reaching confluent” value ([5]; 7 for ROCK inhibitor(−)) was 3 days and the “cells adhered onto the plate as compared to ROCK inhibitor(−)” value ([5]; after 24 hr from the start of the culture) was “apparently more cells were adhered onto the plate”.

From patent US20230210864A1, “AGENT FOR PROMOTING CORNEAL ENDOTHELIAL CELL ADHESION” (Senju Pharmaceutical Co., Ltd., priority 2007, published 2023)
